Experimental data reported in ChEMBL document CHEMBL5506031, “Design, Synthesis, Bioactive Evaluation, and Molecular Dynamics Simulation of Novel 4H-Pyrano[3,2-c]pyridine Analogues as Potential Sterol 14α-Demethylase (CYP51) Inhibitors” (J Med Chem, 2024).
In brackets after ≈: the same amount, converted by molar mass. Activity calls are given as the source filed them. The rule behind the calls is not given here.

Columns and labels:
Colletotrichum lagenaria = test: Fungicidal activity against Colletotrichum lagenarium assessed as fungal inhibitory rate at 16 ug/ml relative to control; type: functional
Fusarium oxysporum = test: Fungicidal activity against Fusarium oxysporum assessed as fungal inhibitory rate at 16 ug/ml relative to control; type: functional
Sclerotinia sclerotiorum = test: Fungicidal activity against Sclerotinia sclerotiorum assessed as fungal inhibitory rate at 16 ug/ml relative to control; type: functional
Penicillium digitatum = test: Fungicidal activity against Penicillium digitatum assessed as fungal inhibitory rate at 16 ug/ml relative to control; type: functional
Botrytis cinerea [1] = test: Fungicidal activity against Botrytis cinerea assessed as fungal inhibitory rate at 16 ug/ml relative to control; type: functional
Botrytis cinerea [2] = test: Fungicidal activity against Botrytis cinerea assessed as fungal growth reduction; type: functional, organism-based
[3] = Inhibition of Botrytis cinerea CYP51 by ELISA
Botrytis cinerea [4] = test: Induction of morphological changes in Botrytis cinerea assessed as cracked cell structure at 0.5 ug/ml incubated for 6 days by TEM analysis; type: functional, organism-based; conditions: dose 0.5 µg/ml, time 6.0 day
Botrytis cinerea [5] = test: Induction of morphological changes in Botrytis cinerea assessed as thin cell wall at 0.5 ug/ml incubated for 6 days by TEM analysis; type: functional, organism-based; conditions: dose 0.5 µg/ml, time 6.0 day
Botrytis cinerea [6] = test: Induction of morphological changes in Botrytis cinerea assessed as uneven mycelia at 0.5 ug/ml incubated for 6 days by SEM analysis; type: functional, organism-based; conditions: dose 0.5 µg/ml, time 6.0 day
Botrytis cinerea [7] = test: Induction of morphological changes in Botrytis cinerea assessed as crinkly mycelia at 0.5 ug/ml incubated for 6 days by SEM analysis; type: functional, organism-based; conditions: dose 0.5 µg/ml, time 6.0 day
Botrytis cinerea [8] = test: Induction of morphological changes in Botrytis cinerea assessed as tangled mycelia at 0.5 ug/ml incubated for 6 days by SEM analysis; type: functional, organism-based; conditions: dose 0.5 µg/ml, time 6.0 day
Botrytis cinerea [9] = test: Inhibition of Botrytis cinerea CYP51 by fluorescent quenching analysis; conditions: dose <= 16.0 µg/ml
Botrytis cinerea [10] = test: Induction of morphological changes in Botrytis cinerea assessed as irregular mycelia at 0.5 ug/ml incubated for 6 days by SEM analysis; type: functional, organism-based; conditions: dose 0.5 µg/ml, time 6.0 day
Botrytis cinerea [11] = test: Induction of morphological changes in Botrytis cinerea assessed as thin cell membrane at 0.5 ug/ml incubated for 6 days by TEM analysis; type: functional, organism-based; conditions: dose 0.5 µg/ml, time 6.0 day

Structure (SMILES) | inhibition at 16 µg/mL (Colletotrichum lagenaria) | inhibition at 16 µg/mL (Fusarium oxysporum) | inhibition at 16 µg/mL (Sclerotinia sclerotiorum) | inhibition at 16 µg/mL (Penicillium digitatum) | inhibition at 16 µg/mL (Botrytis cinerea [1]) | EC50 (Botrytis cinerea [2]) | IC50 [3] | Activity (Botrytis cinerea [4]) | Activity (Botrytis cinerea [5]) | Activity (Botrytis cinerea [6]) | Activity (Botrytis cinerea [7]) | Activity (Botrytis cinerea [8]) | inhibition (Botrytis cinerea [9]) | Activity (Botrytis cinerea [10]) | Activity (Botrytis cinerea [11])
COC(=O)C1=C(N)OC2=C(CN(C(=O)c3cccs3)C/C2=C\c2cccs2)C1c1cccs1 (configuration not stated) | 36.4% | 31.5% | 40.5% | 33.8% | 78.4% | – | – | – | – | – | – | – | – | – | –
COC(=O)C1=C(N)OC2=C(CN(C(=O)c3ccco3)C/C2=C\c2ccc(Cl)s2)C1c1ccc(Cl)s1 (configuration not stated) | 75.7% | 77.7% | – | 70% | 100% | 0.761 µg/mL (≈ 1.39 µM) | 0.831 µg/mL (≈ 1.51 µM) | – | – | – | – | – | – | – | –
CN1CC2=C(OC(N)=C(C#N)C2c2ccc(Br)o2)/C(=C/c2ccc(Br)o2)C1 (configuration not stated) | – | 52.2% | 87.2% | 78.2% | 72.8% | – | – | – | – | – | – | – | – | – | –
COC(=O)C1=C(N)OC2=C(CN(C)C/C2=C\c2cccs2)C1c1cccs1 (configuration not stated) | 51.8% | 25.8% | 57.2% | 34.2% | 38.8% | – | – | – | – | – | – | – | – | – | –
CN1CC2=C(OC(N)=C(C#N)C2c2ccc(Cl)s2)/C(=C/c2ccc(Cl)s2)C1 (configuration not stated) | 66% | 34.5% | 64.9% | 46.8% | 48.5% | – | – | – | – | – | – | – | – | – | –
N#CC1=C(N)OC2=C(CN(C(=O)c3cccs3)C/C2=C\c2cccs2)C1c1cccs1 (configuration not stated) | 33.7% | – | 37.6% | 30.2% | 73.6% | – | – | – | – | – | – | – | – | – | –
N#CC1=C(N)OC2=C(CN(C(=O)c3ccco3)C/C2=C\c2ccc(Br)s2)C1c1ccc(Br)s1 (configuration not stated) | 28.1% | 25% | 31.6% | 25.7% | 66.5% | – | – | – | – | – | – | – | – | – | –
COC(=O)C1=C(N)OC2=C(CN(C(=O)c3cccs3)C/C2=C\c2ccc(Br)s2)C1c1ccc(Br)s1 (configuration not stated) | 66.2% | 62.9% | 68.5% | 61% | 100% | 1.04 µg/mL (≈ 1.59 µM) | 1.288 µg/mL (≈ 1.97 µM) | – | – | – | – | – | – | – | –
COC(=O)C1=C(N)OC2=C(CN(C(=O)c3ccco3)C/C2=C\c2ccc(Br)s2)C1c1ccc(Br)s1 (configuration not stated) | 69.3% | 67.5% | 71.6% | 64.3% | 100% | 0.976 µg/mL (≈ 1.53 µM) | 1.138 µg/mL (≈ 1.78 µM) | – | – | – | – | – | – | – | –
CN1CC2=C(OC(N)=C(C#N)C2c2cccs2)/C(=C/c2cccs2)C1 (configuration not stated) | 70.9% | 38.9% | 68.8% | – | 50.2% | – | – | – | – | – | – | – | – | – | –
N#CC1=C(N)OC2=C(CN(C(=O)c3cccs3)C/C2=C\c2ccco2)C1c1ccco1 (configuration not stated) | 57% | 52.7% | 58.5% | 51.7% | 100% | 1.34 µg/mL (≈ 3.1 µM) | 1.649 µg/mL (≈ 3.82 µM) | – | – | – | – | – | – | – | –
N#CC1=C(N)OC2=C(CN(C(=O)c3cccs3)C/C2=C\c2ccc(Cl)s2)C1c1ccc(Cl)s1 (configuration not stated) | 48.7% | 43.5% | 50.8% | 44.8% | 92.9% | 2.25 µg/mL (≈ 4.22 µM) | 2.625 µg/mL (≈ 4.93 µM) | – | – | – | – | – | – | – | –
Cc1ccc(/C=C2\CN(C(=O)c3cccs3)CC3=C2OC(N)=C(C#N)C3c2ccc(C)s2)s1 (configuration not stated) | 20.5% | 20.3% | 21.1% | 20.1% | 51.8% | – | – | – | – | – | – | – | – | – | –
COC(=O)C1=C(N)OC2=C(CN(C(=O)c3ccco3)C/C2=C\c2cccs2)C1c1cccs1 (configuration not stated) | 38.2% | 34% | 43.4% | 36.1% | 82.2% | – | – | – | – | – | – | – | – | – | –
COC(=O)C1=C(N)OC2=C(CN(C(=O)c3ccco3)C/C2=C\c2ccco2)C1c1ccco1 (configuration not stated) | 86.8% | 87.1% | 85% | 78.4% | 100% | – | 0.377 µg/mL (≈ 0.841 µM) | Active | Active | Active | Active | Active | Dose-Dependent Effect | Active | Active
COC(=O)C1=C(N)OC2=C(CN(C(=O)c3cccs3)C/C2=C\c2ccc(Br)o2)C1c1ccc(Br)o1 (configuration not stated) | 78.3% | 80.9% | 80% | 73.1% | 100% | 0.61 µg/mL (≈ 0.98 µM) | 0.748 µg/mL (≈ 1.2 µM) | – | – | – | – | – | – | – | –
N#CC1=C(N)OC2=C(CN(C(=O)c3ccco3)C/C2=C\c2ccco2)C1c1ccco1 (configuration not stated) | – | – | 65.4% | 58.2% | 100% | 1.17 µg/mL (≈ 2.82 µM) | 1.425 µg/mL (≈ 3.43 µM) | – | – | – | – | – | – | – | –
Cc1ccc(/C=C2\CN(C(=O)c3cccs3)CC3=C2OC(N)=C(C#N)C3c2ccc(C)o2)o1 (configuration not stated) | 23.4% | 22.9% | 24.7% | 21.9% | 56.9% | – | – | – | – | – | – | – | – | – | –
